Here are results for 6 compounds from patent US10525017B2, “Composition containing meso-2,3-butanediol” (Amorepacific Corporation, priority 2014, dated 2020).

Each structure is given as a SMILES string.

Data set [1] can be described thus: Skin irritation test, 24 h patch test. It is filed as in vivo, human. As to the method:
In order to evaluate the skin safety of a human body on 1,3-butanediol, 1,2-butanediol and 1,2-hexanediol (conventionally used diol), which are similar to meso-2,3-butanediol, S,S-2,3-butanediol and R,R-2,3-butanediol that are stereoisomers of 2,3-butanediol except that the position of a hydroxy group is different, the patch test was carried out for 24 hours. The patch was attached to the upper part of the subject's back, and 20 μl of the prepared test substance was applied to the patch using an IQ chamber (chemotechique, Sweeden). The patch was attached and after the lapse of 24 hours, the patch was removed. After removal of the patch, the first reading was performed after 30 minutes, and the second reading was performed after 24 hours.
In order to investigate the intensity of the skin irritation of the samples, weighting values were given according to the degree of positive reaction of the skin, skin average reactivity was determined, and the skin irritation of the sample was judged. The skin average reactivity was calculated using the mathematical formula 1 below, and the determination criteria are as shown in Table 5 below.

The subject of data set [2] is Pseudomonas aeruginosa (ATCC 9027). Briefly: Antibacterial activity test (MIC). It is filed as cell-based. The following applies: broth culture, 25 to 32° C., 24 to 72 hours; tested 0.01 to 10% (v/v). Here is the method:
(§1) In order to compare the antibacterial activities by the position and stereoscopic orientation of the hydroxyl group of the diol, the antibacterial activities (minimum inhibitory concentration, MIC) against the samples described in Table 1 below, that is, six kinds of diols such as 1,3-butanediol, were measured.
(§2) The antibacterial activity measurement tests were performed using bacteria, yeasts and molds, such as Escherichia coli (ATCC 8739), Pseudomonas aeruginosa (ATCC 9027), Staphylococcus aureus (ATCC 6538), Candida albicans (ATCC 10231), and Aspergillus niger; (ATCC 16404). Respective substances or the like were added to Tryptic Soy broth and Sabouraud Dextrose (SD) broth at a concentration of 0.01 to 10% (v/v), the culture solution was prepared in a liquid phase, and the bacteria, yeasts, and molds were inoculated, and then cultured at 25 to 32° C. for 24 to 72 hours to observe the state of the bacteria.

In data set [3] the test system is Escherichia coli (ATCC 8739). Kind of data set: Antibacterial activity test (MIC). In kind it is cell-based. The following applies: broth culture, 25 to 32° C., 24 to 72 hours; tested 0.01 to 10% (v/v). Here is the method: as §1, §2
The subject of data set [4] is Candida albicans (ATCC 10231). Briefly: Antibacterial activity test (MIC). In kind it is cell-based. The following applies: broth culture, 25 to 32° C., 24 to 72 hours; tested 0.01 to 10% (v/v). As to the method: as §1, §2
For data set [5], the system named is Aspergillus niger (ATCC 16404). Kind of data set: Antibacterial activity test (MIC). It is filed as cell-based. The following applies: broth culture, 25 to 32° C., 24 to 72 hours; tested 0.01 to 10% (v/v). As to the method:
as §1, §2

For data set [6], the system named is Staphylococcus aureus (ATCC 6538). Briefly: Antibacterial activity test (MIC). It is filed as cell-based. The following applies: broth culture, 25 to 32° C., 24 to 72 hours; tested 0.01 to 10% (v/v). As to the method:
as §1, §2

Where [7] appears, read: Content 30%, 20 μl, 24 h patch on back, less than 1 = no irritation, 1-3 mild, 3-5 moderate.

Turning to `CCC(O)CO` (stereo not shown) [1,2-butanediol], the “Skin irritation Score (skin average reactivity)” value (from here on “Skin irritation Score”) in data set [1] (setting [7]) is on record as 2.48. Moreover, the “minimum inhibitory concentration, MIC, P. aeruginosa” value in data set [2] is 2.5 % (v/v). In addition, the “minimum inhibitory concentration, MIC, E. coli” value in data set [3] is 5 % (v/v). Further, the “minimum inhibitory concentration, MIC, C. albicans” value in data set [4] is given as 5 % (v/v). Moreover, the “minimum inhibitory concentration, MIC, A. niger” value in data set [5] is listed as 2.5 % (v/v). The “minimum inhibitory concentration, MIC, S. aureus” value in data set [6] is 1.25 % (v/v).

For the compound `CC(O)CCO` (stereo not shown) [1,3-butanediol], the “Skin irritation Score” value in data set [1] (setting [7]) is 0.52. Also, the “minimum inhibitory concentration, MIC, P. aeruginosa” value in data set [2] is >10 % (v/v). Also, the “minimum inhibitory concentration, MIC, E. coli” value in data set [3] was >10 % (v/v). For the same compound, in data set [4], the “minimum inhibitory concentration, MIC, C. albicans” value is >10 % (v/v). The “minimum inhibitory concentration, MIC, A. niger” value in data set [5] is recorded as >10 % (v/v). The “minimum inhibitory concentration, MIC, S. aureus” value in data set [6] is recorded as >10 % (v/v).

On to `C[C@H](O)[C@@H](C)O` [Meso-2,3-butanediol, meso-2,3-butanediol], for which the “Skin irritation Score” value in data set [1] (human, in vivo, 24 h, 30 %) turned out to be 0.41. For the same compound, in data set [1] (in vivo), the “numerical value of skin irritation, in words” value is “lower”. In data set [2], the “minimum inhibitory concentration, MIC, P. aeruginosa” value is recorded as 2.5 % (v/v). The “minimum inhibitory concentration, MIC, E. coli” value in data set [3] is 1.25 % (v/v). The “minimum inhibitory concentration, MIC, C. albicans” value in data set [4] is given as 2.5 % (v/v). Further, the “minimum inhibitory concentration, MIC, A. niger” value in data set [5] is recorded as 1.25 % (v/v). For the same compound, the “minimum inhibitory concentration, MIC, S. aureus” value in data set [6] is reported as 5 % (v/v).

For the compound `CCCCC(O)CO` (stereo not shown) [1,2-hexanediol], the “Skin irritation Score” value in data set [1] (human, in vivo, 24 h, 20 %) was 2.54. In data set [2], the “minimum inhibitory concentration, MIC, P. aeruginosa” value is on record as 1.25 % (v/v). In data set [3], the “minimum inhibitory concentration, MIC, E. coli” value was 1.25 % (v/v). In addition, the “minimum inhibitory concentration, MIC, C. albicans” value in data set [4] is on record as 1.25 % (v/v). Also, in data set [5], the “minimum inhibitory concentration, MIC, A. niger” value is recorded as 0.625 % (v/v). The “minimum inhibitory concentration, MIC, S. aureus” value in data set [6] is 2.5 % (v/v).

In the case of `C[C@H](O)[C@H](C)O` [S,S-2,3-butanediol], the “Skin irritation Score” value in data set [1] (human, in vivo, 24 h, 30 %) is 2.12. In data set [2], the “minimum inhibitory concentration, MIC, P. aeruginosa” value was 5 % (v/v). Also, the “minimum inhibitory concentration, MIC, E. coli” value in data set [3] is listed as 5 % (v/v). For the same compound, in data set [4], the “minimum inhibitory concentration, MIC, C. albicans” value is reported as 5 % (v/v). Besides, the “minimum inhibitory concentration, MIC, A. niger” value in data set [5] is given as 1.25 % (v/v). In data set [6], the “minimum inhibitory concentration, MIC, S. aureus” value is 2.5 % (v/v).

Turning to `C[C@@H](O)[C@@H](C)O` [R,R-2,3-butanediol], in data set [1] (human, in vivo, 24 h, 30 %), the “Skin irritation Score” value stood at 1.45. Also, the “minimum inhibitory concentration, MIC, P. aeruginosa” value in data set [2] was 5 % (v/v). Moreover, in data set [3], the “minimum inhibitory concentration, MIC, E. coli” value is reported as 2.5 % (v/v). In addition, the “minimum inhibitory concentration, MIC, C. albicans” value in data set [4] was 5 % (v/v). Besides, the “minimum inhibitory concentration, MIC, A. niger” value in data set [5] is 5 % (v/v). Further, the “minimum inhibitory concentration, MIC, S. aureus” value in data set [6] is on record as 10 % (v/v).
